This series in a line: Particle size distribution of jet milled palonosetron fine powder by HELOS Particle Size Analyzer. The format is physicochemical. The procedure:
Palonosetron HCl was milled with a 2-in pancake Jet Mill and flexible containment. The process air was nitrogen. The jet milling was conducted at Catalent Micron Technologies, Malvern, Pa., USA.
The particle size distribution of the palonosetron fine powder, prepared by jet milling, was measured by HELOS Particle Size Analyzer (Sympatec GmbH, Germany) at Micron Technologies, Inc., Malvern, Pa., USA.
The Particle Size Distribution parameters are: • D10: 0.68 μm • D50: 1.39 μm • D90: 2.89 μm • D95: 3.68 μm • D99.5: 6.92 μm • Cumulative % <9 μm: 100%

Counter-ions that a name gives are not always drawn.

Consider `O=C1c2cccc3c2[C@H](CCC3)CN1[C@@H]1CN2CCC1CC2` [Jet Milled Palonosetron Fine Powder, Palonosetron HCl], for which the “Cumulative % <9 μm” value was found to be 100%, the D10 came to 0.68 μm, the D50 came to 1.39 μm and the D90 is recorded as 2.89 μm. The compound further gave a D95 of 3.68 μm and a D99.5 of 6.92 μm.
